Here are results for 54 molecules from the Kinase Knowledgebase extract (Sharma et al. 2016).

Usually IC50 stands for the concentration that inhibits the measured activity by half.

Holding throughout (experiment): Enzyme Assay
Test [1] has as its target PIK3CB (Human) (UniProt P42338).
In test [2] the target is PIK3CA (human) (UniProt P42336).
In test [3] the target is PIK3CD (Human) (UniProt O00329).
Chain of PIK3CD (Human) (O00329 whole entry, looked up): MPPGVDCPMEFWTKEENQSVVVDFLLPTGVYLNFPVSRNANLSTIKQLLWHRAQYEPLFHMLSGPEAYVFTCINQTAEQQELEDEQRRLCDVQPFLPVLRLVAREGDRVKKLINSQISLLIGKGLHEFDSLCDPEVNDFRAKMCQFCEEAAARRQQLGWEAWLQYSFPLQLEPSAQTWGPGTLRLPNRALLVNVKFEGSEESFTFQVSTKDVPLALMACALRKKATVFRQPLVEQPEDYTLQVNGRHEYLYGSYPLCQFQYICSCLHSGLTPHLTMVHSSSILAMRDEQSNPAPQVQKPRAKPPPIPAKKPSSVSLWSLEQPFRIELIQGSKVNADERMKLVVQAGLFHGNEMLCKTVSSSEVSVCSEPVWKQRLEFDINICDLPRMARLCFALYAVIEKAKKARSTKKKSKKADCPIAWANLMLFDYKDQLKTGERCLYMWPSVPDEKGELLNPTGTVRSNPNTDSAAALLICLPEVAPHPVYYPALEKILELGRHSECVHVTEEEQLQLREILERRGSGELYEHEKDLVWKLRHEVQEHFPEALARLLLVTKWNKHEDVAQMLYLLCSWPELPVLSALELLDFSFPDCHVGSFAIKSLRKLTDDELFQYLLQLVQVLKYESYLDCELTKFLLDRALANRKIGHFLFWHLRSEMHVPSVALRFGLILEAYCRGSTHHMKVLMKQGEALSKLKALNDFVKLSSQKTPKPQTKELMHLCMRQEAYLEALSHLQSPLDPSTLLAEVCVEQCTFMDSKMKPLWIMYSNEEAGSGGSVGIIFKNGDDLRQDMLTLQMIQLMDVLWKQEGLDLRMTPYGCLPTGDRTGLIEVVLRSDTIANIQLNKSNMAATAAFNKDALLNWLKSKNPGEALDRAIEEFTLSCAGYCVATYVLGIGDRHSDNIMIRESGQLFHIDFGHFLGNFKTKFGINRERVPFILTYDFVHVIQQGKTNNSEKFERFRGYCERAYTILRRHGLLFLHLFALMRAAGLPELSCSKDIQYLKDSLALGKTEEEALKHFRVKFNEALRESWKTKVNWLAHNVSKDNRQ

Chain of PIK3CA (human) (P42336 whole entry, looked up): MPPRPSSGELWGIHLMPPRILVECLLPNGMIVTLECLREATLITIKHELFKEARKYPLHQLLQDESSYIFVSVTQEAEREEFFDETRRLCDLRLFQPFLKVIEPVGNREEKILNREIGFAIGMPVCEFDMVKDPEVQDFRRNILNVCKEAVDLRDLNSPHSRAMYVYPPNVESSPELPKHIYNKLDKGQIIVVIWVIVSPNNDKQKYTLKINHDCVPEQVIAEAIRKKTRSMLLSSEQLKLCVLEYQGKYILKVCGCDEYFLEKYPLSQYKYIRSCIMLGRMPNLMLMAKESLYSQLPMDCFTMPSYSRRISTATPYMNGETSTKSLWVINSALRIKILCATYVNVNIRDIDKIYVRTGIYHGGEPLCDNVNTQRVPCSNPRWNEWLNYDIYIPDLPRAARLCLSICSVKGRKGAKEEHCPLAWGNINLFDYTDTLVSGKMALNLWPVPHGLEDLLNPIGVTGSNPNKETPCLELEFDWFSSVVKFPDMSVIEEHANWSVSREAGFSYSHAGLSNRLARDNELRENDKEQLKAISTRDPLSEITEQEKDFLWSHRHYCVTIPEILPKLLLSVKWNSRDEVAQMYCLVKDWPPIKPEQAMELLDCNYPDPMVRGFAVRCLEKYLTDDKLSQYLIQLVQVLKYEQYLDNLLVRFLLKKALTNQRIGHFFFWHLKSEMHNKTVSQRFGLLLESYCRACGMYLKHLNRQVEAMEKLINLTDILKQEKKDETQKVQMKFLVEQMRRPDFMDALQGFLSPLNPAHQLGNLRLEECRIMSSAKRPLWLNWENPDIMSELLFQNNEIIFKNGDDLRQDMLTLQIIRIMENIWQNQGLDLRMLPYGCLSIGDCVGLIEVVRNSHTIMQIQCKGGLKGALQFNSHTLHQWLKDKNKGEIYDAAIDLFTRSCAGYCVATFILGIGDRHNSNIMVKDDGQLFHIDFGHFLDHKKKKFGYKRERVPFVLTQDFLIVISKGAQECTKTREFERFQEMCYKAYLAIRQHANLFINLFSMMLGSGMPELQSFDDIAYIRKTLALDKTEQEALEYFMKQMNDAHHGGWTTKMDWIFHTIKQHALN
Chain of PIK3CB (Human) (P42338 whole entry, looked up): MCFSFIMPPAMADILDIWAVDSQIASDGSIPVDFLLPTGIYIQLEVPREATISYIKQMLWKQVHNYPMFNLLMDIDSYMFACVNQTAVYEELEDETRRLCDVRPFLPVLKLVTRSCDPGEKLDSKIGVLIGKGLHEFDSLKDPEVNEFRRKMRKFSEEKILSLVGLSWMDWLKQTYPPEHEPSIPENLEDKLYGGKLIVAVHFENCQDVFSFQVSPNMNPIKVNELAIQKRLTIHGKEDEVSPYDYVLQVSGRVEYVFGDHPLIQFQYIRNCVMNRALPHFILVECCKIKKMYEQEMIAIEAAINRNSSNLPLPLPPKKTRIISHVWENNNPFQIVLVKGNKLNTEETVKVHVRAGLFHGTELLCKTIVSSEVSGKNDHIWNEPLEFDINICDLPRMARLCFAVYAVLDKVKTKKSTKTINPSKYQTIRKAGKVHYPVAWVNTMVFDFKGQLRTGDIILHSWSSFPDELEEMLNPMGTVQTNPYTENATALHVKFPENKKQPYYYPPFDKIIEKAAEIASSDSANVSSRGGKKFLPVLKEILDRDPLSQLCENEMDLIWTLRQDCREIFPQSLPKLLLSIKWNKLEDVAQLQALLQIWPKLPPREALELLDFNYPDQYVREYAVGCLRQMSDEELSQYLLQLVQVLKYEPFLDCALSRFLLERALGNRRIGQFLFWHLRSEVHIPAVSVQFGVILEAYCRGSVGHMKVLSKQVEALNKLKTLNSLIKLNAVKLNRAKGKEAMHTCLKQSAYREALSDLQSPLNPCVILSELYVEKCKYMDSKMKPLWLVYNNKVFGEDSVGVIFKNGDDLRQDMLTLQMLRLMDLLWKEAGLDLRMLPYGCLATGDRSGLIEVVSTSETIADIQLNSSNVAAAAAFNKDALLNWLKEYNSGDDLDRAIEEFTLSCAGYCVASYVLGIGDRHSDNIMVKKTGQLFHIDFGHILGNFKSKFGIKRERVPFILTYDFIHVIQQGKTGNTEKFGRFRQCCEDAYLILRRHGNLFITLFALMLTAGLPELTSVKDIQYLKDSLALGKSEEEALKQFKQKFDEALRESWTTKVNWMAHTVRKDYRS

In the case of `Cc1cccc2cc([C@H](C)NC3CCOCC3)n(-c3ccccc3)c(=O)c12`, the IC50 in test [1], in test [2] and in test [3] was more than 10 µM each time.
For `Cc1cccc2cc([C@H](C)Nc3cc(N)nc(Cl)n3)n(C3CC3)c(=O)c12`, the IC50 in test [1], in test [2] and in test [3] was more than 10 µM in each case.
Turning to `CCC(Nc1ncnc2[nH]cnc12)c1cc2cccc(C)c2c(=O)n1-c1cc(F)cc(F)c1` (centres undefined), the concentration for half-maximal inhibition (IC50) in test [1] is more than 10 µM; in test [2], more than 10 µM; in test [3], less than 0.1 µM.
In the case of `Nc1ncnc2c1c(-c1cn[nH]c1)nn2Cc1cc2cccc(F)c2c(=O)n1-c1ccccc1F`, the IC50 in test [1] is more than 10 µM; in test [2] it was more than 10 µM; in test [3], 0.1 to 1 µM.
As to `Cc1cccc2cc(Cn3nc(-c4ccn[nH]4)c4c(N)ncnc43)n(-c3ccccc3F)c(=O)c12`, the IC50 was more than 10 µM in test [1], more than 10 µM in test [2] and 0.1 to 1 µM in test [3].
In the case of `C[C@H](Nc1ncnc2[nH]cnc12)c1cc2cccc(Cl)c2c(=O)n1C1CC1`, the IC50 is less than 0.1 µM in test [1], 0.1 to 1 µM in test [2] and less than 0.1 µM in test [3].
Consider `Cc1cccc2cc(Cn3nc(Br)c4c(N)ncnc43)n(-c3ccccc3F)c(=O)c12`, for which the IC50 was more than 10 µM in test [1], more than 10 µM in test [2] and 0.1 to 1 µM in test [3].
In the case of `Cc1cccc2cc([C@H](C)Nc3ncnc4[nH]c(Cl)nc34)n(C3CC3)c(=O)c12`, the IC50 in test [1], in test [2] and in test [3] was more than 10 µM each time.
With `Cc1cccc2cc(C(C)Nc3ncnc4[nH]cnc34)n(C3CCN(C)CC3)c(=O)c12` (centres undefined), the IC50 was 0.1 to 1 µM in test [1], more than 10 µM in test [2] and less than 0.1 µM in test [3].
For `Cc1cccc2cc([C@H](C)Nc3ncnc4[nH]c(O)nc34)n(-c3ccccc3)c(=O)c12` the same measures were more than 10 µM, more than 10 µM and more than 10 µM.
Consider `CCC(Nc1ncnc2[nH]cnc12)c1cc2ccccc2c(=O)n1-c1ccccc1` (centres undefined), for which the IC50 in test [1] was more than 10 µM; in test [2], more than 10 µM; in test [3], less than 0.1 µM.
Consider `Cc1cccc2cc([C@H](C)Nc3ncnc4[nH]cc(Br)c34)n(C3CC3)c(=O)c12`, for which the IC50 was less than 0.1 µM in test [1], 0.1 to 1 µM in test [2] and less than 0.1 µM in test [3].
In the case of `CCc1nn(Cc2cc3cccc(C)c3c(=O)n2-c2ccccc2C)c2ncnc(N)c12`, the IC50 in test [1] was more than 10 µM; in test [2] it was more than 10 µM; in test [3] it was less than 0.1 µM.
For the molecule `Cc1cccc2cc(C(C)Nc3ncnc4[nH]cnc34)n(-c3ccc(F)cc3)c(=O)c12` (centres undefined), the half-inhibitory concentration (IC50) is 0.1 to 1 µM in test [1] and less than 0.1 µM in test [3].
For `CC(=O)Nc1nc2cc(-c3nn(Cc4cc5cccc(C)c5c(=O)n4-c4ccccc4)c4ncnc(N)c34)ccc2o1` the same measures were less than 0.1 µM and less than 0.1 µM.
As to `Cc1cccc2cc([C@H](C)Nc3nc(N)ncc3C(N)=O)n(C3CC3)c(=O)c12`, the IC50 in test [1], in test [2] and in test [3] was more than 10 µM in each case.
`Cc1cccc2cc([C@H](C)Nc3ncnc4[nH]cc(C#N)c34)n(C3CC3)c(=O)c12`: the IC50 is less than 0.1 µM in test [1], 0.1 to 1 µM in test [2] and less than 0.1 µM in test [3].
For `Cc1cccc2cc(C(C)Nc3nc(Cl)ncc3N)n(-c3ccccc3)c(=O)c12` (centres undefined), the IC50 in test [1], in test [2] and in test [3] was more than 10 µM throughout.
Turning to `Cc1cccc2cc([C@H](C)Nc3ncnc4[nH]cc(F)c34)n(C3CC3)c(=O)c12`, the values for the IC50 in test [1], in test [2] and in test [3] were less than 0.1 µM, 0.1 to 1 µM and less than 0.1 µM, respectively.
`Cc1cccc2cc(Cn3nc(-c4ccc5nc(N)sc5c4)c4c(N)ncnc43)n(-c3ccccc3)c(=O)c12`: the IC50 in test [1] was 0.1 to 1 µM; in test [2], less than 0.1 µM; in test [3], less than 0.1 µM.
Turning to `Cc1cccc2cc(Cn3nc(-c4ccc(O)c(Cl)c4)c4c(N)ncnc43)n(-c3ccccc3F)c(=O)c12`, the IC50 in test [1] is more than 10 µM; in test [2], more than 10 µM; in test [3] it was 0.1 to 1 µM.
With `COc1cc(-c2nn(Cc3cc4cccc(C)c4c(=O)n3-c3ccccc3C)c3ncnc(N)c23)ccc1Cl`, the IC50 in test [1] is more than 10 µM; in test [2] it was more than 10 µM; in test [3], 0.1 to 1 µM.
`Cc1cccc2cc([C@@H](C)Nc3ncnc4[nH]cnc34)n(C3CCC3)c(=O)c12`: the IC50 in test [1], in test [2] and in test [3] was more than 10 µM in each case.
As to `Cc1ccccc1-n1c(Cn2nc(-c3ccc4sc(N)nc4c3)c3c(N)ncnc32)cc2cccc(C)c2c1=O`, the IC50 in test [1] was 0.1 to 1 µM; in test [2] it was 0.1 to 1 µM; in test [3], less than 0.1 µM.
Regarding `Cc1cccc2cc([C@H](C)Nc3ncnc4[nH]cc(F)c34)n(-c3ccccc3)c(=O)c12`, the IC50 in test [1] and in test [3] was less than 0.1 µM in each case.
Take `Cc1ccccc1-n1c(Cn2nc(-c3ccc(O)cc3)c3c(N)ncnc32)cc2cccc(C)c2c1=O`: the IC50 in test [1] is more than 10 µM; in test [2], more than 10 µM; in test [3] it was 0.1 to 1 µM.
In the case of `Cc1cccc2cc([C@H](C)Nc3cc(N)nc(Cl)n3)n(-c3ccccc3)c(=O)c12`, the IC50 was more than 10 µM in test [1], more than 10 µM in test [2] and 0.1 to 1 µM in test [3].
As to `Cc1cccc2cc([C@H](C)Nc3ncnc4[nH]cnc34)n(C3CC3)c(=O)c12`, the IC50 in test [1] and in test [3] was less than 0.1 µM in each case.
In the case of `Cc1cccc2cc([C@H](C)Nc3ncnc4[nH]cnc34)n(-c3ccc(F)cc3)c(=O)c12`, the IC50 in test [1] was less than 0.1 µM; in test [2], 0.1 to 1 µM; in test [3] it was less than 0.1 µM.
`Cc1cccc2cc(Cn3nc(I)c4c(N)ncnc43)n(C)c(=O)c12`: the IC50 in test [1] was more than 10 µM; in test [2] it was more than 10 µM; in test [3] it was 0.1 to 1 µM.
In the case of `Cc1ccccc1-n1c(Cn2nc(CCC(N)=O)c3c(N)ncnc32)cc2cccc(C)c2c1=O`, the IC50 in test [1] is more than 10 µM; in test [2], more than 10 µM; in test [3], 0.1 to 1 µM.
`Cc1cccc2cc(C(C)Nc3nc(N)nc4[nH]cnc34)n(-c3ccccc3)c(=O)c12` (centres undefined): the IC50 in test [1] was less than 0.1 µM; in test [2], 0.1 to 1 µM; in test [3], less than 0.1 µM.
In the case of `Cc1cccc2cc([C@H](C)Nc3ncnc4[nH]nc(C(N)=O)c34)n(-c3ccccc3)c(=O)c12`, the IC50 in test [1] and in test [3] was less than 0.1 µM in each case.
As to `Cc1ccccc1-n1c(Cn2nc(CC#N)c3c(N)ncnc32)cc2cccc(C)c2c1=O`, the IC50 in test [1] was more than 10 µM; in test [3] it was less than 0.1 µM.
For `C=Cc1nn(Cc2cc3cccc(C)c3c(=O)n2-c2ccccc2F)c2ncnc(N)c12`, the IC50 in test [1] was more than 10 µM; in test [2], more than 10 µM; in test [3] it was 0.1 to 1 µM.
As for `Cc1cccc2cc(Cn3nc(-c4ccc5oc(N)nc5c4)c4c(N)ncnc43)n(C3CCC3)c(=O)c12`, the results for the IC50 in test [1], in test [2] and in test [3] were 0.1 to 1 µM, 0.1 to 1 µM and less than 0.1 µM, respectively.
Regarding `COc1cc(F)cc(-c2nn(Cc3cc4cccc(C)c4c(=O)n3-c3ccccc3C)c3ncnc(N)c23)c1`, the IC50 in test [1] was more than 10 µM; in test [2], more than 10 µM; in test [3], 0.1 to 1 µM.
On to `Cc1cccc2cc([C@H](C)Nc3ncnc4[nH]cc(C#N)c34)n(-c3ccccc3)c(=O)c12`, for which the IC50 was less than 0.1 µM in test [1], 0.1 to 1 µM in test [2] and less than 0.1 µM in test [3].
In the case of `Cc1cccc2cc([C@H](C)Nc3ncnc4[nH]cc(Cl)c34)n(-c3ccccc3)c(=O)c12`, the values for the IC50 in test [1], in test [2] and in test [3] were less than 0.1 µM, 0.1 to 1 µM and less than 0.1 µM, respectively.
For `Cc1ccccc1-n1c(Cn2nc(I)c3c(N)ncnc32)cc2cccc(F)c2c1=O`, the IC50 in test [1] was more than 10 µM; in test [2] it was more than 10 µM; in test [3] it was 0.1 to 1 µM.
With `Cc1cccc2cc([C@H](C)Nc3ncnc4[nH]nc(C(N)=O)c34)n(C3CC3)c(=O)c12`, the IC50 in test [1] and in test [3] was less than 0.1 µM each time.
With `COc1ccc(-c2nn(Cc3cc4cccc(C)c4c(=O)n3-c3ccccc3C)c3ncnc(N)c23)cc1OC`, the IC50 is more than 10 µM in test [1], more than 10 µM in test [2] and 0.1 to 1 µM in test [3].
Regarding `COC(=O)c1nn(Cc2cc3cccc(C)c3c(=O)n2-c2ccccc2C)c2ncnc(N)c12`, the values for the IC50 in test [1], in test [2] and in test [3] were more than 10 µM, more than 10 µM and 0.1 to 1 µM, respectively.
With `Cc1cccc2cc(Cn3nc(CF)c4c(N)ncnc43)n(-c3ccccc3)c(=O)c12`, the IC50 in test [1] was more than 10 µM; in test [3] it was less than 0.1 µM.
As to `CC(=O)Nc1nc2cc(-c3nn(Cc4cc5cccc(C)c5c(=O)n4-c4ccccc4C)c4ncnc(N)c34)ccc2o1`, the IC50 in test [1] is 0.1 to 1 µM; in test [3], less than 0.1 µM.
The like results for `Cc1cccc2cc([C@H](C)Nc3ncnc4[nH]ccc34)n(C3CC3)c(=O)c12` were, in that order, less than 0.1 µM and less than 0.1 µM.
With `Cc1ccccc1-n1c(Cn2nc(CF)c3c(N)ncnc32)cc2cccc(C)c2c1=O`, the values for the IC50 in test [1] and in test [3] were more than 10 µM and less than 0.1 µM, respectively.
As to `Cc1cccc2cc(Cn3nc(-c4ccc(F)c(O)c4)c4c(N)ncnc43)n(C3CCCC3)c(=O)c12`, the IC50 in test [1] and in test [2] was more than 10 µM each time.
`Cc1cccc2cc(Cn3nc(C#C[C@@H](C)O)c4c(N)ncnc43)n(-c3ccccc3O)c(=O)c12`: the IC50 in test [1] and in test [2] was more than 10 µM in each case.
In the case of `Cc1cccc2cc([C@H](C)Nc3ncnc4[nH]nc(C#N)c34)n(-c3ccccc3)c(=O)c12`, the half-maximal inhibitory concentration (IC50) in test [1] and in test [3] was less than 0.1 µM throughout.
In the case of `Cc1cccnc1-n1c(Cn2nc(-c3ccc(F)c(O)c3)c3c(N)ncnc32)cc2cccc(C)c2c1=O`, the IC50 in test [1] and in test [2] was more than 10 µM each time.
Regarding `Cc1cccc2cc(Cn3nc(I)c4c(N)ncnc43)n(C(C)C)c(=O)c12`, the concentration for half-maximal inhibition (IC50) in test [1] and in test [2] was more than 10 µM throughout.
For `Cc1cccc2cc(C(C)Nc3ncnc4[nH]cnc34)n(C3CC3)c(=O)c12` (centres undefined), the values for the IC50 in test [1] and in test [3] were 0.1 to 1 µM and less than 0.1 µM, respectively.
Take `Cc1cccc2cc([C@H](C)Nc3ncc(C(F)(F)F)c(N)n3)n(-c3ccccc3)c(=O)c12`: the IC50 in test [1] and in test [2] was more than 10 µM throughout.
